What was measured:
[1] = system: Pseudomonas sp. strain LBr glyphosate oxidoreductase; experiment: Km of glyphosate oxidoreductase from Pseudomonas sp. strain LBr; format: biochemical
Text: Using this PCR approach, glyphosate oxidoreductase genes from a number of sources have been isolated. The presence of the glyphosate oxidoreductase activity was confirmed by cloning the glyphosate oxidoreductase gene from chromosomal DNA prepared from Pseudomonas sp. strain LBr (Jacob et al., 1988) and using primers homologous to the N- and C-termini of the LBAA glyphosate oxidoreductase gene and containing the following suitable restriction cloning sites: 5′-[…] ATG-3′ (SEQ ID NO:13) and 5′-[…] AGTAC-3′ (SEQ ID NO:14). Cyclotherm parameters used for these PCR reactions is as follows: • Denature at 94° C. for 1 minute; • Anneal at 60° C. for 2 minutes; • Polymerize at 72° C. for 3 minutes, • 30 cycles, no autoextension, linked to 4° C. incubation. The expected ˜1.3 kb PCR produced was generated and following digestion with NdeI and HindIII, this fragment was cloned into pMON2123 for expression of the encoded enzyme.

[2] = target: LBAA glyphosate oxidoreductase variant w1v2v3 (SER84, ARG153, ARG334) (Ochrobactrum sp. G-1, UniProt D2KI28, H334R/K153R/S2A); experiment: Kinetic analysis of domain switches, clone w1v2v3; format: biochemical, bacterial isolate LBAA (Pseudomonas strain LBAA); details: substrate glyphosate
Experimental: (§1) The mutagenesis procedure used was that of Mn++-poisoned PCR and the template was a linearized glyphosate oxidoreductase gene plasmid containing the synthetic glyphosate oxidoreductase gene (SEQ ID NO:8). The oligonucleotide primers used were homologous to regions in the vector and flanking the glyphosate oxidoreductase gene. The PCR conditions employed were as follows: 1 minute at 94° C., 2 minutes at 55° C., and 3 minutes at 72° C. and with 35 cycles. A 5:1 ratio of dCTP+dGTP+TTP to dATP was used. The reactions contained MnCl2 at 125, 250, 375, or 500 μM. After the reaction, the amplified product was recloned into a vector containing a weak E. coli promoter. This vector was a pBR327 derivative containing the araBAD promoter and suitable cloning sites. […] Growth rates were determined by measuring A550 over a 96 hour period. […] Protein concentrations were determined using the Bio-Rad protein dye-binding assay. […] Ten minutes was determined to be the optimal time for the enzyme assay using 10 μg lysate. […] Enzyme activity was determined from the amount of glyoxylate-DNPH adduct formed by measuring A520 against a standard of glyoxylate. […] The Km and Vmax were determined from Lineweaver Burk, Eadie-Hofstee and hyperbolic kinetic plots. […]

[3] = target: LBAA glyphosate oxidoreductase variant v1v2w3 (GLY84, ARG153, HIS334) (Ochrobactrum sp. G-1, UniProt D2KI28, K153R/S2A/S84G); experiment: Kinetic analysis of domain switches, clone v1v2w3; format: biochemical, bacterial isolate LBAA (Pseudomonas strain LBAA); details: substrate glyphosate
Experimental: as §1

[4] = system: Agrobacterium sp. strain T10 glyphosate oxidoreductase; experiment: Km of glyphosate oxidoreductase from Agrobacterium sp. strain T10; format: biochemical
Experimental: A population of bacteria was isolated from a fixed-bed immobilized cell column, which employed Mannville R-635 diatomaceous earth beads, by plating on Tryptone Soy Agar (Difco), containing cylcoheximide at 100 ug/ml, and incubating at 28° C. The column had been run for three months on a waste-water feed from the Monsanto Company's Luling, MS, glyphosate production plant. The column contained 50 mg/ml glyphosate and NH3 as NH4Cl. Total organic carbon was 300 mg/ml and BOD's (Biological Oxygen Demand—a measure of “soft” carbon availability) was less than 30 mg/ml. This treatment column has been described (Heitkamp et al., 1990). […] Chromosomal DNA was prepared from this isolate and subjected to the same PCR procedure and with the same primers as described above for the strain LBr. A fragment of the correct size was generated and cloned into the E. coli expression vector. The glyphosate oxidoreductase activity was assayed and the Km for glyphosate also determined: […]

[5] = target: LBAA glyphosate oxidoreductase variant ARG 334 (His334 to Arg) (Ochrobactrum sp. G-1, UniProt D2KI28, H334R/S2A); experiment: Kinetic analysis of glyphosate oxidoreductase variant ARG 334 (site-directed mutagenesis); format: biochemical, bacterial isolate LBAA (Pseudomonas strain LBAA)
[6] = target: LBAA glyphosate oxidoreductase variant w1w2v3 (SER84, LYS153, ARG334) (Ochrobactrum sp. G-1, UniProt D2KI28, H334R/S2A); experiment: Kinetic analysis of domain switches, clone w1w2v3; format: biochemical, bacterial isolate LBAA (Pseudomonas strain LBAA); details: substrate glyphosate
Experimental: as §1

O=C(O)CNCP(=O)(O)O [glyphosate, N-phosphonomethyl-glycine]
Km [1]: 25 mM
VmKm [2]: 0.28
VmKm [3]: 0.021
Km [4]: 28 mM
VmKm (Glyp) [5]: .23
VmKm [6]: 0.375

From USRE38825E1, “Glyphosate tolerant plants” (Monsanto Technology LLC, priority 1990, dated 2005)
